Tests used:
[1] = target: T1, BTK (Homo sapiens, UniProt Q06187); test: Assay to determine activity against BTK; assay type: biochemical; settings: 1 mM ATP, 2 nM BTK, 90 minutes at room temperature
T1 construct: purchased Cama
Description: Solutions of compounds (test or control) in DMSO were prepared at the desired concentrations, and serially diluted to 11 concentrations by 3-fold dilution in 384pp-plate using TECAN EVO200. 20 nL of stock were transferred to 384 plate using Echo550. DMSO was used as vehicle control.
(BTK was obtained from Cama; FLPeptide2 was obtained from PerkinElmer and Ibrutinib was obtained from Selleck.) 5 μL of ATP solution were added to each well, followed by addition of 15 μL of BTK solution to initiate the reaction. (Note the final volume of each well was 20 μL containing MgCl2 (10 mM), Brij-35 (0.01%), DTT (2 mM), BSA (0.05%), EGTA (1 mM), HEPE (pH7.5) (50 mM), FLPeptide (1.5 uM), ATP (1 mM) and BTK (2 nM).
The plates were incubated at room temperature for 90 minutes and then stopping buffer added (75 μL, containing 0.5 M EDTA) to terminate the reaction. Samples from each well were analyzed using EZ reader. The % remaining activity was calculated using read conversion ratio (CR) according to the equation: […]
XLFit (equation 201) was used to calculate IC50's by floating both bottom and top.

[2] = test system: BTK in RAMOS B cells; test: Assay to determine BTK activity in RAMOS B cells (anti-IgM, FLIPR Calcium 6); assay type: cell-based; settings: anti-IgM EC80, calcium readout
Description: On the day before assay, Ramos B cells were plated in plating medium (RPMI1640 medium containing 1% FBS and 1× pencillin-streptomycin). On the day of the assay, 2× dye solution was prepared following the manual of the FLIRP Calcium 6 Assay Kit: Dilute the dye with assay buffer (20 mM HEPES in IX HBSS, pH7.4); Add probenecid to the final concentration of 5 mM; vortex vigorously for 1-2 minutes. Cells were collected by centrifuging, and the pellet was re-suspended in plating medium. After counting, cells were re-suspended at a density of 3×10^6/ml in plating medium. Equal volume of 2× dye solution was added to the cell suspension. Cells were then plated at 20 μl/well into a 384-well poly-D-lysine coated plate. Plate was centrifuged at 1000 rpm for 3 minutes and then incubated at 37° C. for 2 hours followed by an additional 15-minute incubation at 25° C. Compounds were prepared at 3× concentration in dilution buffer (20 mM HEPES and 0.1% BSA in 1×HBSS, pH 7.4). Serially diluted compound was transferred from source plate to a 384-well compound plate by using an Echo 550 (Labcyte). 20 μl/well compound dilution buffer was added to the compound plate and mixed on plate shaker for 2 mins. 4× EC80 of Anti-IgM (Jackson ImmunoResearch) was prepared in dilution buffer and 20 μl/well was added to a new 384-well compound plate. After 60 mins of incubation at 25° C. in the dark; cell plate, compound plate containing 4×EC80 of anti-IgM and FLIPR tips were placed into FLIPR (Molecular Devices). 10 ul/well of 4×EC80 anti-IgM was transferred to the cell plate by FLIPR. Plates were read for 160 sec with 1 sec interval.

T1 sequence (Q06187 whole entry): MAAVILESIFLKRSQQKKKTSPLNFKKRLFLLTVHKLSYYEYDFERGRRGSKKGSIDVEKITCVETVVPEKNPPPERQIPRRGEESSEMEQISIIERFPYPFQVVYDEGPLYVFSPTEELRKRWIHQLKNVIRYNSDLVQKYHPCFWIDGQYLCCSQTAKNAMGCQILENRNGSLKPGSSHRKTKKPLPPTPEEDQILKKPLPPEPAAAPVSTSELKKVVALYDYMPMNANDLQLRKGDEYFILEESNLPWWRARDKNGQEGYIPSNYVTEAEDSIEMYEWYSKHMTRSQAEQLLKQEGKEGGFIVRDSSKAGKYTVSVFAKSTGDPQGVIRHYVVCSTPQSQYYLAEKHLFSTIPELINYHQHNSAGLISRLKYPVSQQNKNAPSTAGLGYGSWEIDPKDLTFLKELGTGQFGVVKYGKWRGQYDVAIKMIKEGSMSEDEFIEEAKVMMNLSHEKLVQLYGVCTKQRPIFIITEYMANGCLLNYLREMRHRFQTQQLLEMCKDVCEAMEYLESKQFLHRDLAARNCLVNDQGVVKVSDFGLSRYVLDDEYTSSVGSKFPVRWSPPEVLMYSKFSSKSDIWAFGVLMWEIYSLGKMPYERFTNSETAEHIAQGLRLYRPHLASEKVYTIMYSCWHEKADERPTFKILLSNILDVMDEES

SMILES	IC50 [1] [µM]	IC50 ([2]; Homo sapiens, Ramos) [µM]	IC50 [2] [µM]
C=CC(=O)N1CCCC(c2c(F)cc(C(N)=O)c3[nH]c4c(c23)CCCCC4)C1 (racemic) [Compound 5-5, 1-(1-acryloylpiperidin-3-yl)-2-fluoro-5,6,7,8,9,10-hexahydrocyclohepta[b]indole-4-carboxamide]	0.01 to 0.1	0.01 to 0.1	
C=CC(=O)N1CCc2c(cccc2-c2c(C)nc(C(N)=O)c3[nH]c4c(c23)CCCC4)C1 (single isomer, unassigned) [Compound 2-5, 4-(2-acryloyl-1,2,3,4-tetrahydroisoquinolin-5-yl)-3-methyl-6,7,8,9-tetrahydro-5H-pyrido[3,4-b]indole-1-carboxamide]	0.01 to 0.1		≥ 0.1
C=CC(=O)N1CCc2c(cccc2-c2c(C)nc(C(N)=O)c3[nH]c4c(c23)CCCC4)C1 (single isomer, unassigned) [Compound 2-6, 4-(2-acryloyl-1,2,3,4-tetrahydroisoquinolin-5-yl)-3-methyl-6,7,8,9-tetrahydro-5H-pyrido[3,4-b]indole-1-carboxamide]	< 0.01		0.01 to 0.1
C=CC(=O)N1CCc2c(cccc2-c2c(C)nc(C(N)=O)c3[nH]c4c(c23)CCCC4)C1 (single isomer, unassigned) [Compound 2-7, 4-(2-acryloyl-1,2,3,4-tetrahydroisoquinolin-5-yl)-3-methyl-6,7,8,9-tetrahydro-5H-pyrido[3,4-b]indole-1-carboxamide]	≥ 0.1		≥ 0.1
C=CC(=O)N1CCCC(c2c(F)cc(C(N)=O)c3[nH]c4c(c23)CCCCC4)C1 (single isomer, unassigned) [Compound 5-7]	≥ 0.1		≥ 0.1
C=CC(=O)N1CCCC(c2cnc(C(N)=O)c3[nH]c4c(c23)CCCC4)C1 (centres unmarked) [Compound 1-1, 4-(1-acryloylpiperidin-3-yl)-6,7,8,9-tetrahydro-5H-pyrido[3,4-b]indole-1-carboxamide]	0.01 to 0.1	0.01 to 0.1	
C=CC(=O)N1CCc2c(cccc2-c2cnc(C(N)=O)c3[nH]c4c(c23)CCCC4)C1 [Compound 2-1, 4-(2-acryloyl-1,2,3,4-tetrahydroisoquinolin-5-yl)-6,7,8,9-tetrahydro-5H-pyrido[3,4-b]indole-1-carboxamide]	0.01 to 0.1	0.01 to 0.1	
C=CC(=O)N1CCC=C(c2cnc(C(N)=O)c3[nH]c4c(c23)CCCC4)C1 [Compound 2-2]	0.01 to 0.1	0.01 to 0.1	
C=CC(=O)N1CCC[C@H](c2cnc(C(N)=O)c3[nH]c4c(c23)CCCC4)C1 [Compound 2-3, (R)-4-(1-acryloylpiperidin-3-yl)-6,7,8,9-tetrahydro-5H-pyrido[3,4-b]indole-1-carboxamide]	≥ 0.1	≥ 0.1	
CC#CC(=O)N1CCC=C(c2cnc(C(N)=O)c3[nH]c4c(c23)CCCC4)C1 [Compound 2-8, 4-(1-(but-2-ynoyl)-1,2,5,6-tetrahydropyridin-3-yl)-6,7,8,9-tetrahydro-5H-pyrido[3,4-b]indole-1-carboxamide]	0.01 to 0.1	≥ 0.1	
C=CC(=O)N1CCC=C(c2cnc(C(N)=O)c3[nH]c4c(c23)CC(F)(F)CC4)C1 [Compound 2-9, 4-(1-acryloyl-1,2,5,6-tetrahydropyridin-3-yl)-6,6-difluoro-6,7,8,9-tetrahydro-5H-pyrido[3,4-b]indole-1-carboxamide]	0.01 to 0.1	0.01 to 0.1	

The next lines start with the values.

IC50 [1] [µM]	IC50 ([2]; Homo sapiens, Ramos) [µM]	IC50 [2] [µM]	SMILES
≥ 0.1	≥ 0.1		C=CC(=O)N1CCc2c(-c3c(F)cc(C(N)=O)c4[nH]c5c(c34)CC3(CC5)CC3)cccc2[C@@H]1C (atropisomer, axis not shown) [Compound 7-20, 5-((S)-2-acryloyl-1-methyl-1,2,3,4-tetrahydroisoquinolin-5-yl)-6-fluoro-1,2,4,9-tetrahydrospiro[carbazole-3,1′-cyclopropane]-8-carboxamide]
< 0.01	0.01 to 0.1		C=CC(=O)N1CCc2c(-c3c(F)cc(C(N)=O)c4[nH]c5c(c34)CC3(CC5)CC3)cccc2[C@@H]1C (atropisomer, axis not shown) [Compound 7-21, (R)-5-((S)-2-acryloyl-1-methyl-1,2,3,4-tetrahydroisoquinolin-5-yl)-6-fluoro-1,2,4,9-tetrahydrospiro[carbazole-3,1′-cyclopropane]-8-carboxamide]
0.01 to 0.1		0.01 to 0.1	C=CC(=O)N1CCc2c(cccc2-c2c(F)cc(C(N)=O)c3[nH]c4c(c23)CCCCC4)C1 (single isomer, unassigned) [Compound 5-1, 2-fluoro-1-[2-(prop-2-enoyl)-3,4-dihydro-1H-isoquinolin-5-yl]-5H,6H,7H,8H,9H,10H-cyclohepta[b]indole-4-carboxamide]
≥ 0.1		≥ 0.1	C=CC(=O)N1CCc2c(cccc2-c2c(F)cc(C(N)=O)c3[nH]c4c(c23)CCCCC4)C1 (single isomer, unassigned) [Compound 5-2, 2-fluoro-1-[2-(prop-2-enoyl)-3,4-dihydro-1H-isoquinolin-5-yl]-5H,6H,7H,8H,9H,10H-cyclohepta[b]indole-4-carboxamide]
< 0.01	≥ 0.1		C=CC(=O)N1CCc2c(cccc2-c2c(F)cc(C(N)=O)c3[nH]c4c(c23)C[S+]([O-])CC4)C1 (single isomer, unassigned) [Compound 9-1, 9-(2-acryloyl-1,2,3,4-tetrahydroisoquinolin-5-yl)-8-fluoro-1,3,4,5-tetrahydrothiopyrano[4,3-b]indole-6-carboxamide 2-oxide]
0.01 to 0.1		≥ 0.1	C=CC(=O)N1CCc2c(cccc2-c2c(F)cc(C(N)=O)c3[nH]c4c(c23)C[S+]([O-])CC4)C1 (single isomer, unassigned) [Compound 9-2, 9-(2-acryloyl-1,2,3,4-tetrahydroisoquinolin-5-yl)-8-fluoro-1,3,4,5-tetrahydrothiopyrano[4,3-b]indole-6-carboxamide 2-oxide]
< 0.01		0.01 to 0.1	C=CC(=O)N1CCc2c(cccc2-c2c(F)cc(C(N)=O)c3[nH]c4c(c23)CS(=O)(=O)CC4)C1 (single isomer, unassigned) [Compound 9-3, 9-(2-acryloyl-1,2,3,4-tetrahydroisoquinolin-5-yl)-8-fluoro-1,3,4,5-tetrahydrothiopyrano[4,3-b]indole-6-carboxamide 2,2-dioxide]
≥ 0.1		≥ 0.1	C=CC(=O)N1CCc2c(cccc2-c2c(F)cc(C(N)=O)c3[nH]c4c(c23)CS(=O)(=O)CC4)C1 (single isomer, unassigned) [Compound 9-4, 9-(2-acryloyl-1,2,3,4-tetrahydroisoquinolin-5-yl)-8-fluoro-1,3,4,5-tetrahydrothiopyrano[4,3-b]indole-6-carboxamide 2,2-dioxide]
< 0.01		< 0.01	CC#CC(=O)N[C@H]1CCCC(c2c(F)cc(C(N)=O)c3[nH]c4c(c23)CCC4)C1 (single isomer, unassigned) [Compound 10-5]
0.01 to 0.1		≥ 0.1	CC#CC(=O)N[C@H]1CCCC(c2c(F)cc(C(N)=O)c3[nH]c4c(c23)CCC4)C1 (single isomer, unassigned) [Compound 10-6]
< 0.01	< 0.01		C=CC(=O)N1CCc2c(cccc2-c2ncc(C(N)=O)c3[nH]c4c(c23)CCCC4)C1 [Compound 3-1, 1-(2-acryloyl-1,2,3,4-tetrahydroisoquinolin-5-yl)-6,7,8,9-tetrahydro-5H-pyrido[4,3-b]indole-4-carboxamide]
< 0.01	< 0.01		C=CC(=O)N1CCC=C(c2ncc(C(N)=O)c3[nH]c4c(c23)CCCC4)C1 [Compound 3-2, 1-(1-acryloyl-1,2,5,6-tetrahydropyridin-3-yl)-6,7,8,9-tetrahydro-5H-pyrido[4,3-b]indole-4-carboxamide]
< 0.01	< 0.01		C=CC(=O)N1CCCC(c2ncc(C(N)=O)c3[nH]c4c(c23)CCCC4)C1 (centres unmarked) [Compound 3-3, 1-(1-acryloylpiperidin-3-yl)-6,7,8,9-tetrahydro-5H-pyrido[4,3-b]indole-4-carboxamide]
≥ 0.1	≥ 0.1		C=CC(=O)N[C@H]1CCCN(c2ncc(C(N)=O)c3[nH]c4c(c23)CCCC4)C1 [Compound 3-4, (S)-1-(3-acrylamidopiperidin-1-yl)-6,7,8,9-tetrahydro-5H-pyrido[4,3-b]indole-4-carboxamide]

Reference: patent publication US20220009920A1 (GB005, Inc., priority 2020, published 2022)
